This note sets out measurements from patent publication US7947741B2, “Use and administration of bacterial efflux pump inhibitors” (Mpex Pharmaceuticals, Inc., priority 2004, dated 2011).

In brackets after ≈: the same amount, converted by molar mass. Some results are limits rather than exact numbers.

For test [1], the system named is P. aeruginosa PAM1723 (MexAB-OprM overexpressed). It counts as cell-based, Pseudomonas aeruginosa. To be noted: for MIC, No Pentamidine / MIC, Pentamidine (40 μg/ml): PAM1723 (MexAB-OprM overexpressed); for MIC, Pentamidine (40 μg/ml): in the presence of pentamidine 40 μg/ml; for decrease of the MIC by pentamidine: PAM1723, pentamidine 40 μg/ml.
In test [2] the test system is P. aeruginosa PAM1154 (MexAB-OprM deleted). It counts as cell-based, Pseudomonas aeruginosa.
Test [3] concerns P. aeruginosa PAM1020 (wt, basal level of MexAB-OprM). The test is described as follows: Levofloxacin potentiation checkerboard assay (broth microdilution). To be noted: PAM1020; for MIC: Pseudomonas aeruginosa, inhibitor alone, read-out: MIC* (MIC for the efflux pump inhibitor). It counts as cell-based, Pseudomonas aeruginosa. The method, then: (§1) Stock solutions were further diluted, according to the needs of a particular assay, in Mueller Hinton Broth (MHB). Stock solution was stored at −80° C.
(§2) The checkerboard assay was performed in microtiter plates. […] The result of these manipulations is that each well of the microtiter plate contains a unique combination of concentrations of the two agents. The assay was performed in MHB with a final bacterial inoculum of 5×10^5 CFU/ml (from an early-log phase culture). Microtiter plates were incubated during 20 h at 35° C. and were read using a microtiterplate reader (Molecular Devices) at 650 nm as well as visual observation using a microtiter plate reading mirror.
(§3) The test organisms used was PAM1020, which is a wild type strain of P. aeruginosa expressing the basal level of MexAB-OprM, as well as PAM1723, PAM1738, and PAM1753, overexpressing the MexAB-OprM, MexCD-OprJ, and MexEF-OprN pump, respectively.
On the technique in general: Dilution methods test growth across graded concentrations, often in twofold steps.

Test [4] concerns P. aeruginosa PAM1753 (nfxC, overexpressing MexEF-OprN). Described as above. It counts as cell-based, Pseudomonas aeruginosa. To be noted: for Levofloxacin MIC in the presence of inhibitor: PAM1753; for MIC: Pseudomonas aeruginosa, read-out: MIC* (MIC for the efflux pump inhibitor). The method, then:
as §1, §2, §3

The test system of test [5] is P. aeruginosa PAM1723 (nalB, overexpressing MexAB-OprM). The test is described as follows: microbe, parasite or virus in culture. It counts as cell-based, Pseudomonas aeruginosa. To be noted: for Levofloxacin MIC in the presence of inhibitor: PAM1723; for MIC: Pseudomonas aeruginosa, read-out: MIC* (MIC for the efflux pump inhibitor), PAM1723, inhibitor alone. The method, then: as §1, §2, §3
Efflux pump inhibitory activity of several commercially available diamidine analogs was evaluated using the checkerboard assay of Example 1 against the strain of P. aeruginosa overexpressing the MexAB-OprM efflux pump.

In test [6] the test system is P. aeruginosa PAM1738 (nfxB, overexpressing MexCD-OprJ). The test is described as follows: microbe, parasite or virus in culture. It counts as cell-based, Pseudomonas aeruginosa. To be noted: for Levofloxacin MIC in the presence of inhibitor: PAM1738; for MIC: Pseudomonas aeruginosa, read-out: MIC* (MIC for the efflux pump inhibitor). The method, then: as §1, §2, §3

Test [7] concerns P. aeruginosa PAM1626 (lacks all the three efflux pumps). The test is described as follows: microbe, parasite or virus in culture. It counts as cell-based, Pseudomonas aeruginosa. To be noted: for Levofloxacin MIC in the presence of inhibitor: PAM1626; for MIC: Pseudomonas aeruginosa, read-out: MIC* (MIC for the efflux pump inhibitor).
In test [8] the target is MexAB-OprM-mediated efflux of Leu-Nap, PAM1723 cells (Pseudomonas aeruginosa, UniProt P52002). The test is described as follows: Leu-Nap accumulation assay. To be noted: Leu-Nap 100 μg/ml. It counts as cell-based.
MexAB-OprM-mediated efflux of Leu-Nap, PAM1723 cells, sequence (Q51487 18-485): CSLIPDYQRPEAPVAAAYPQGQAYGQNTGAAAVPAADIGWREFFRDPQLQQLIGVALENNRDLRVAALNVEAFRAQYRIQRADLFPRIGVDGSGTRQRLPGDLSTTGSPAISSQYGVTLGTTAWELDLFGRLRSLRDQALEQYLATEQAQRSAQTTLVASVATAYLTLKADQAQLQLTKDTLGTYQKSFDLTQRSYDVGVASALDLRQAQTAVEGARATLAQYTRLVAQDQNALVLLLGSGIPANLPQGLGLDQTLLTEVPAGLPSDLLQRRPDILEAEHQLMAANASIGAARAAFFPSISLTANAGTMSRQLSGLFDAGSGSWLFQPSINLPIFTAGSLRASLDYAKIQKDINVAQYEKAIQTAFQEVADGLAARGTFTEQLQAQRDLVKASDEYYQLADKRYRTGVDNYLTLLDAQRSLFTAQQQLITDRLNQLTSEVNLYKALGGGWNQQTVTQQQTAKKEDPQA
MexAB-OprM-mediated efflux of Leu-Nap, PAM1723 cells, sequence (P52002 whole entry): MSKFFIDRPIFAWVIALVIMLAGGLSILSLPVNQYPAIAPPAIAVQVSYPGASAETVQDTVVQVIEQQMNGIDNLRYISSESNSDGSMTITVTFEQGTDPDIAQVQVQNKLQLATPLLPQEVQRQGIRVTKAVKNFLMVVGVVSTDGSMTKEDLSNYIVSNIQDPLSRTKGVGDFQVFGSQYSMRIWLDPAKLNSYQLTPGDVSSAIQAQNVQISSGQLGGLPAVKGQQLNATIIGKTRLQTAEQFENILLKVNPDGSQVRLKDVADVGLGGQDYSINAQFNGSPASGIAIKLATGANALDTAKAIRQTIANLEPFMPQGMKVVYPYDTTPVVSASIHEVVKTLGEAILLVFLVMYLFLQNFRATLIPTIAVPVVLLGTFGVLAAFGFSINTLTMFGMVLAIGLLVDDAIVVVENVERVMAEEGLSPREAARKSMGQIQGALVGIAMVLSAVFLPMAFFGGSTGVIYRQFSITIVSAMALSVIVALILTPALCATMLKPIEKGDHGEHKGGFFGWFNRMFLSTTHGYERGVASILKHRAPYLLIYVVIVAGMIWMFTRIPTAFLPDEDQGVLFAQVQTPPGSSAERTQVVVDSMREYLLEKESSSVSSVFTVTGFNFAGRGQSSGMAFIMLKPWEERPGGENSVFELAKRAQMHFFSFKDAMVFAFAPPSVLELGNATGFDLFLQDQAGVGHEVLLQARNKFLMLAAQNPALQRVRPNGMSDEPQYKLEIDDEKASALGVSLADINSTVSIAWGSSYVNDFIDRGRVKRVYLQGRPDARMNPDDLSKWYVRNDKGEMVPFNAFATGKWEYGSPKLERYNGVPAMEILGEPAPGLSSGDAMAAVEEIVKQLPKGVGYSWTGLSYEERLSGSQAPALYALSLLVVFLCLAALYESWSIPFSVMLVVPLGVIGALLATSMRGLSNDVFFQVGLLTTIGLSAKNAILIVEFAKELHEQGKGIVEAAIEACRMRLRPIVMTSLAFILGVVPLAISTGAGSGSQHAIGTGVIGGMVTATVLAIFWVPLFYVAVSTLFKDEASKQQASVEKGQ
MexAB-OprM-mediated efflux of Leu-Nap, PAM1723 cells, sequence (P52477 24-383, further chain): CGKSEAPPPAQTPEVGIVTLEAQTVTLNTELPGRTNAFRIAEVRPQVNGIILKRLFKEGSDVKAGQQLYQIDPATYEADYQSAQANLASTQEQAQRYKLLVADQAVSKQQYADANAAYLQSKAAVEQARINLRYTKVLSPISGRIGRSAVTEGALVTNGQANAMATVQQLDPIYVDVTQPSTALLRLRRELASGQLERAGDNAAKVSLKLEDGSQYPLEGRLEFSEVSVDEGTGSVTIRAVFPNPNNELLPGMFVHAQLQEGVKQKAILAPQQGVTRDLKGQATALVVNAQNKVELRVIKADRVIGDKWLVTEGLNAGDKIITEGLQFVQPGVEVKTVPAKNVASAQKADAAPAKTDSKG

With `CC[C@H]1OC(=O)[C@H](C)[C@@H](O[C@H]2C[C@@](C)(OC)[C@@H](O)[C@H](C)O2)[C@H](C)[C@@H](O[C@@H]2O[C@H](C)C[C@H](N(C)C)[C@H]2O)[C@](C)(O)C[C@@H](C)CN(C)[C@H](C)[C@@H](O)[C@]1(C)O` [Azithro, azithromycin], in test [1], the MIC, No Pentamidine was 64 µg/mL (≈ 85.4 µM); the “MIC, Pentamidine (40 μg/ml)” value is given as 1; the “decrease of the MIC by pentamidine” value amounted to 64 fold. In test [2], this compound displayed an MIC, No Pentamidine of 0.5 µg/mL (≈ 0.668 µM).
Taken in the same sequence, the figures for `O=C(N[C@H](CO)[C@H](O)c1ccc([N+](=O)[O-])cc1)C(Cl)Cl` [Cm, chloramphenicol] were 128 µg/mL (≈ 396 µM), 8, 16 fold and 1 µg/mL (≈ 3.09 µM).
As for `N=C(N)c1ccc(OCCCOc2ccc(C(=N)N)cc2Br)c(Br)c1` [Dibromopropamidine, dibromopropamidine], the “Levofloxacin MIC in the presence of inhibitor” value (“Levofloxacin MIC … of inhibitor” below) in test [3] (inhibitor 1.25 μg/ml) was 0.25 µg/mL; in test [3] (inhibitor 2.5 μg/ml) it was 0.25 µg/mL; in test [3] (inhibitor 5 μg/ml) it was 0.125 µg/mL; in test [3] (inhibitor 10 μg/ml), 0.06 µg/mL; in test [3] (inhibitor 20 μg/ml), 0.03 µg/mL; in test [3] (inhibitor 40 μg/ml), 0.03 µg/mL. The “Levofloxacin MIC … of inhibitor” value in test [4] (inhibitor 1.25 μg/ml) was 2 µg/mL; in test [4] (inhibitor 2.5 μg/ml), 1 µg/mL; in test [4] (inhibitor 5 μg/ml), 0.5 µg/mL; in test [4] (inhibitor 10 μg/ml), 0.125 µg/mL; in test [5] (inhibitor 1.25 μg/ml) it was 2 µg/mL; in test [5] (inhibitor 2.5 μg/ml), 1 µg/mL. In addition, the “Levofloxacin MIC … of inhibitor” value in test [5] (inhibitor 5 μg/ml) was found to be 0.5 µg/mL; in test [5] (inhibitor 10 μg/ml), 0.125 µg/mL; in test [5] (inhibitor 20 μg/ml), 0.06 µg/mL; in test [5] (inhibitor 40 μg/ml), 0.06 µg/mL; in test [6] (inhibitor 1.25 μg/ml), 0.5 µg/mL; in test [6] (inhibitor 2.5 μg/ml), 0.25 µg/mL. The “Levofloxacin MIC … of inhibitor” value was 0.125 µg/mL in test [6] (inhibitor 5 μg/ml); 0.06 µg/mL in test [6] (inhibitor 10 μg/ml); 0.03 µg/mL in test [6] (inhibitor 20 μg/ml); 0.03 µg/mL in test [6] (inhibitor 40 μg/ml); 0.0075 µg/mL in test [7] (inhibitor 1.25 μg/ml); 0.007 µg/mL in test [7] (inhibitor 2.5 μg/ml). In addition, the MIC in test [3] worked out at 80 µg/mL; in test [4], 20 µg/mL; in test [5] it was 80 µg/mL; in test [6] it was 80 µg/mL; in test [7], 5 µg/mL (≈ 10.6 µM). Moreover, the “inhibitor concentration at which rate of Leu-Nap uptake in PAM1723 and PAM1626 is the same (complete inhibition of efflux)” value (shortened to “inhibitor concentration at which rate”) in test [8] is 20 µg/mL.
For the compound `CC[C@H]1OC(=O)[C@H](C)[C@@H](O[C@H]2C[C@@](C)(OC)[C@@H](O)[C@H](C)O2)[C@H](C)[C@@H](O[C@@H]2O[C@H](C)C[C@H](N(C)C)[C@H]2O)[C@](C)(O)C[C@@H](C)C(=O)[C@H](C)[C@@H](O)[C@]1(C)O` [Erm, erythromycin], in test [1], the “MIC, Pentamidine (40 μg/ml)” value was found to be 64 and the “decrease of the MIC by pentamidine” value is 4 fold. The compound also had an MIC, No Pentamidine in test [2] of 8 µg/mL (≈ 10.9 µM).
On to `N=C(N)c1ccc(OCCCCCCOc2ccc(C(=N)N)cc2)cc1` [Hexamidine, hexamidine], for which the “Levofloxacin MIC … of inhibitor” value was found to be 0.125 µg/mL in test [3] (inhibitor 1.25 μg/ml); 0.125 µg/mL in test [3] (inhibitor 2.5 μg/ml); 0.03 µg/mL in test [3] (inhibitor 5 μg/ml); 0.007 µg/mL in test [3] (inhibitor 10 μg/ml); 2 µg/mL in test [4] (inhibitor 1.25 μg/ml); 2 µg/mL in test [4] (inhibitor 2.5 μg/ml). Besides, the “Levofloxacin MIC … of inhibitor” value is 1 µg/mL in test [4] (inhibitor 5 μg/ml); 0.25 µg/mL in test [4] (inhibitor 10 μg/ml); 2 µg/mL in test [5] (inhibitor 1.25 μg/ml); 1 µg/mL in test [5] (inhibitor 2.5 μg/ml); 1 µg/mL in test [5] (inhibitor 5 μg/ml); 0.125 µg/mL in test [5] (inhibitor 10 μg/ml). Further, the “Levofloxacin MIC … of inhibitor” value in test [5] (inhibitor 20 μg/ml) stood at 0.015 µg/mL; in test [6] (inhibitor 1.25 μg/ml) it was 0.5 µg/mL; in test [6] (inhibitor 2.5 μg/ml), 0.5 µg/mL; in test [6] (inhibitor 5 μg/ml) it was 0.25 µg/mL; in test [6] (inhibitor 10 μg/ml) it was 0.06 µg/mL; in test [6] (inhibitor 20 μg/ml), 0.015 µg/mL. The “Levofloxacin MIC … of inhibitor” value in test [6] (inhibitor 40 μg/ml) and in test [7] (inhibitor 1.25 μg/ml) was 0.007 µg/mL throughout. In addition, the MIC amounted to 20 µg/mL in test [3]; 20 µg/mL in test [4]; 40 µg/mL in test [5]; 80 µg/mL in test [6]; 2.5 µg/mL (≈ 7.05 µM) in test [7]. Further, in test [8], the “inhibitor concentration at which rate” value is 20 µg/mL.
Turning to `N=C(N)c1ccc(/N=N/Nc2ccc(C(=N)N)cc2)cc1` [MP 601206], the “Levofloxacin MIC … of inhibitor” value in test [5] (inhibitor 1.25 μg/ml) turned out to be 2 µg/mL; in test [5] (inhibitor 2.5 μg/ml), 2 µg/mL; in test [5] (inhibitor 5 μg/ml), 1 µg/mL; in test [5] (inhibitor 10 μg/ml), 1 µg/mL; in test [5] (inhibitor 20 μg/ml), 0.5 µg/mL; in test [5] (inhibitor 40 μg/ml), 0.06 µg/mL. Besides, the MIC in test [5] amounted to 80 µg/mL.
In the case of `Cl.Cl.N=C(N)c1cccc(NC(=O)Nc2cccc(C(=N)N)c2)c1` [MP 601319], the “Levofloxacin MIC … of inhibitor” value in test [5] (inhibitor 1.25 μg/ml) was 2 µg/mL; in test [5] (inhibitor 2.5 μg/ml) it was 2 µg/mL; in test [5] (inhibitor 5 μg/ml), 2 µg/mL; in test [5] (inhibitor 10 μg/ml) it was 2 µg/mL; in test [5] (inhibitor 20 μg/ml) it was 1 µg/mL; in test [5] (inhibitor 40 μg/ml), 0.25 µg/mL. In test [5] (inhibitor 80 μg/ml), the “Levofloxacin MIC … of inhibitor” value was found to be 0.125 µg/mL. The MIC in test [5] is > 80 µg/mL.
Turning to `N=C(N)c1ccc(OCCCOc2ccc(C(=N)N)cc2)cc1` [Propamidine, propamidine], the “Levofloxacin MIC … of inhibitor” value in test [3] (inhibitor 1.25 μg/ml) came to 0.25 µg/mL; in test [3] (inhibitor 2.5 μg/ml) it was 0.125 µg/mL; in test [3] (inhibitor 5 μg/ml), 0.125 µg/mL; in test [3] (inhibitor 10 μg/ml), 0.06 µg/mL; in test [3] (inhibitor 20 μg/ml), 0.03 µg/mL; in test [4] (inhibitor 1.25 μg/ml), 4 µg/mL. In addition, the “Levofloxacin MIC … of inhibitor” value in test [4] (inhibitor 2.5 μg/ml) amounted to 2 µg/mL; in test [5] (inhibitor 1.25 μg/ml), 2 µg/mL; in test [5] (inhibitor 2.5 μg/ml), 2 µg/mL; in test [5] (inhibitor 5 μg/ml), 1 µg/mL; in test [5] (inhibitor 10 μg/ml), 0.5 µg/mL; in test [5] (inhibitor 20 μg/ml), 0.25 µg/mL. Besides, the “Levofloxacin MIC … of inhibitor” value amounted to 0.5 µg/mL in test [6] (inhibitor 1.25 μg/ml); 0.5 µg/mL in test [6] (inhibitor 2.5 μg/ml); 0.25 µg/mL in test [6] (inhibitor 5 μg/ml); 0.125 µg/mL in test [6] (inhibitor 10 μg/ml); 0.015 µg/mL in test [6] (inhibitor 20 μg/ml); 0.015 µg/mL in test [7] (inhibitor 1.25 μg/ml). The “Levofloxacin MIC … of inhibitor” value in test [7] (inhibitor 2.5 μg/ml) and in test [7] (inhibitor 5 μg/ml) was 0.007 µg/mL each time. Further, the MIC is 40 µg/mL in test [3]; 5 µg/mL in test [4]; 40 µg/mL in test [5]; 40 µg/mL in test [6]; 10 µg/mL (≈ 32 µM) in test [7]. Further, the “inhibitor concentration at which rate” value in test [8] turned out to be 160 µg/mL.
